Measurements reported in patent publication US20250134792A1, “COMPOSITIONS AND METHODS FOR TREATING SKIN” (L'Oreal, priority 2023, published 2025).

Legend:
[1] = test system: normal human epidermal keratinocytes (NHEK); assay: Proliferation: KI67 staining of NHEKs; type: cell-based; settings: proxylane 0.005%, 0.017%, 0.05%; niacinamide 0.0012%, 0.004%, 0.012%; alone or in combination; FIG. 3
From the text: Surgical skin samples were taken from adults and subjected to the 0.25% trypsin dermis/epidermis separation method described in Rheinwald to obtain suspensions of normal human epidermal keratinocytes (NHEK) and dermal fibroblasts. […] The NHEK cell cultures were initiated using the 3T3 feeder-layer technique described in Rheinwald J. G., Green H.: Epidermal growth factor and the multiplication of cultured human epidermal keratinocytes.
Keratinocytes were stained against KI67 and expression was quantified.

[2] = test system: Normal Human Epidermal Melanocytes-Dark Pigment; assay: PGE-2 induced inflammation and melanin synthesis; type: cell-based; settings: 30 nM PGE2 stimulated melanocytes; 10 mM (0.12%) niacinamide, proxylane (0.19%); 10 days; FIG. 10
Method: Normal Human Epidermal Melanocytes-Dark Pigment (Lot 1981687, Passage 3, ThermoFisher, Waltham, MA) were seeded in 6-well plates at a density of 100,000 cells per well. Cells were grown in culture medium supplemented with Gibo Human Melanocyte Growth Supplement-2 (ThermoFisher, Waltham, MA). […] Following the 10 days, cells were trypsinized and the melanin was isolated using NaOH. A standard curve using commercially available melanin was used to calculate the average cellular melanin content using the recorded optical density of the isolated melanin using a microplate reader. Average cellular melanin content was normalized to total protein content.

neutrophil elastase = biological target: T1, neutrophil elastase (Homo sapiens, UniProt P08246); settings: alone and in combination; 37° C., fluorescence slope over thirty minutes; FIG. 5
T1 sequence (P08246 30-267): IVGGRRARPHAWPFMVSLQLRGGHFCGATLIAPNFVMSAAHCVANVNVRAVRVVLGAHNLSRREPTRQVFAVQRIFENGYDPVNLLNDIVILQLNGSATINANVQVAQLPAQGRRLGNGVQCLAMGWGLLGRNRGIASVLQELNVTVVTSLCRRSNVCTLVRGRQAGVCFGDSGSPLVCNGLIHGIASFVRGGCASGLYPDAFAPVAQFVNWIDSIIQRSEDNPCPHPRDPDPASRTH

**Q.** With NC(=O)c1cccnc1 [vitamin B3, niacinamide] as the compound, how does the “cell proliferation of keratinocytes (KI67 expression)” value [1] read?
**A.** capable of stimulating

**Q.** And the “melanin production (average cellular melanin content normalized to total protein)” value [2]?
**A.** significantly decreases

**Q.** What about the elastase activity (neutrophil elastase) of the same compound?
**A.** inhibit
